Values of other authors as cited in PubChem BioAssay AID1259409 (Chemical Carcinogenesis Research Information System (CCRIS), 2018).

Tested on: rodent chemically induced tumor inhibition, incidence and multiplicity
Experiment: CCRIS tumor inhibitor studies
Conditions: for tumour outcome (control, treated, inhibition, significance): Dose [Inhibitor]: 0
From the text: The CCRIS database contains chemical records with carcinogenicity, mutagenicity, tumor promotion, and tumor inhibition test results. It was developed by the National Cancer Institute (NCI). Data are derived from studies cited in primary journals, current awareness tools, NCI reports, and other sources. Test results have been reviewed by experts in carcinogenesis and mutagenesis.
CCRIS provides historical information from the years 1985 - 2011. It is no longer updated.
This is an archive assay for CCRIS tumor inhibitor studies.

C=CCSCC=C
tumour outcome (control, treated, inhibition, significance) (Carcinogen: DIETHYLNITROSAMINE, 55-18-5, N-METHYL-N-NITROSOUREA, 684-93-5, N,N-DIBUTYLNITROSAMINE, 924-16-3, Carcinogen: DIETHYLNITROSAMINE, 55-18-5, N-METHYL-N-NITROSOUREA, 684-93-5, N,N-DIBUTYLNITROSAMINE, 924-16-3, 0.5% IN DIET BEGINNING POST CARCINOGEN TREATMENT AND CONTINUING TO WK 40 (STUDY DURATION: 40 WK), Route [Inhibitor]: ORAL, Species: RAT, Strain/Sex: F344/MALE, Target Tissue: Type of Lesion: LUNG: CARCINOMA, Dose [Carcinogen]: 100 MG/KG DIETHYLNITROSAMINE ONCE FOLLOWED BY 20 MG/KG N-METHYL-N-NITROSOUREA ON D 2, 5, 8 AND 11 THEN 0.05% N-N-DIBUTYL, Promoter: NONE USED): 3/16 (19%), 0/18 (0%), 100%, not calculated | tumour outcome (control, treated, inhibition, significance) (Carcinogen: DIETHYLNITROSAMINE, 55-18-5, N-METHYL-N-NITROSOUREA, 684-93-5, N,N-DIBUTYLNITROSAMINE, 924-16-3, Carcinogen: DIETHYLNITROSAMINE, 55-18-5, N-METHYL-N-NITROSOUREA, 684-93-5, N,N-DIBUTYLNITROSAMINE, 924-16-3, 0.5% IN DIET BEGINNING POST CARCINOGEN TREATMENT AND CONTINUING TO WK 40 (STUDY DURATION: 40 WK), Route [Inhibitor]: ORAL, Species: RAT, Strain/Sex: F344/MALE, Target Tissue: Type of Lesion: THYROID: ADENOMA, Dose [Carcinogen]: 100 MG/KG DIETHYLNITROSAMINE ONCE FOLLOWED BY 20 MG/KG N-METHYL-N-NITROSOUREA ON D 2, 5, 8 AND 11 THEN 0.05% N-N-DIBUTYL, Promoter: NONE USED): 8/16 (50%), 2/18 (11%), 78%, p<0.02 | tumour outcome (control, treated, inhibition, significance) (Carcinogen: DIETHYLNITROSAMINE, 55-18-5, N-METHYL-N-NITROSOUREA, 684-93-5, N,N-DIBUTYLNITROSAMINE, 924-16-3, Carcinogen: DIETHYLNITROSAMINE, 55-18-5, N-METHYL-N-NITROSOUREA, 684-93-5, N,N-DIBUTYLNITROSAMINE, 924-16-3, 0.5% IN DIET BEGINNING POST CARCINOGEN TREATMENT AND CONTINUING TO WK 40 (STUDY DURATION: 40 WK), Route [Inhibitor]: ORAL, Species: RAT, Strain/Sex: F344/MALE, Target Tissue: Type of Lesion: THYROID: CARCINOMA, Dose [Carcinogen]: 100 MG/KG DIETHYLNITROSAMINE ONCE FOLLOWED BY 20 MG/KG N-METHYL-N-NITROSOUREA ON D 2, 5, 8 AND 11 THEN 0.05% N-N-DIBUTYL, Promoter: NONE USED): 2/16 (13%), 0/18 (0%), 100%, not calculated | tumour outcome (control, treated, inhibition, significance) (Carcinogen: DIETHYLNITROSAMINE, 55-18-5, N-METHYL-N-NITROSOUREA, 684-93-5, N,N-DIBUTYLNITROSAMINE, 924-16-3, Carcinogen: DIETHYLNITROSAMINE, 55-18-5, N-METHYL-N-NITROSOUREA, 684-93-5, N,N-DIBUTYLNITROSAMINE, 924-16-3, 0.5% IN DIET BEGINNING POST CARCINOGEN TREATMENT AND CONTINUING TO WK 40 (STUDY DURATION: 40 WK), Route [Inhibitor]: ORAL, Species: RAT, Strain/Sex: F344/MALE, Target Tissue: Type of Lesion: URINARY BLADDER: CARCINOMA, Dose [Carcinogen]: 100 MG/KG DIETHYLNITROSAMINE ONCE FOLLOWED BY 20 MG/KG N-METHYL-N-NITROSOUREA ON D 2, 5, 8 AND 11 THEN 0.05% N-N-DIBUTYL, Promoter: NONE USED): 1/16 (6%), 0/18 (0%), 100%, not calculated | tumour outcome (control, treated, inhibition, significance) (Carcinogen: DIETHYLNITROSAMINE, 55-18-5, N-METHYL-N-NITROSOUREA, 684-93-5 N,N-DIBUTYLNITROSAMINE, 924-16-3, Carcinogen: DIETHYLNITROSAMINE, 55-18-5, N-METHYL-N-NITROSOUREA, 684-93-5 N,N-DIBUTYLNITROSAMINE, 924-16-3, 0.5% IN DIET BEGINNING POST CARCINOGEN TREATMENT AND CONTINUING TO WK 40 (STUDY DURATION: 40 WK), Route [Inhibitor]: ORAL, Species: RAT, Strain/Sex: F344/MALE, Target Tissue: Type of Lesion: URINARY BLADDER: PAPILLOMA, Dose [Carcinogen]: 100 MG/KG DIETHYLNITROSAMINE ONCE FOLLOWED BY 20 MG/KG N-METHYL-N-NITROSOUREA ON D 2, 5, 8 AND 11 THEN 0.05% N-N-DIBUTYL, Promoter: NONE USED): 4/16 (25%), 2/18 (11%), 56%, not calculated | tumour outcome (control, treated, inhibition, significance) (Carcinogen: DIETHYLNITROSAMINE, 55-18-5, N-METHYL-NITROSOUREA, 684-93-5, N,N'-DIMETHYLHYDRAZINE, 540-73-8, N-BUTYL-N-(4-HYDROX, Carcinogen: DIETHYLNITROSAMINE, 55-18-5, N-METHYL-NITROSOUREA, 684-93-5, N,N'-DIMETHYLHYDRAZINE, 540-73-8, N-BUTYL-N-(4-HYDROX, 200 MG/KG BW IN CORN OIL 3/WK FOR 6 WK BEGINNING POST CARCINOGEN TREATMENT (STUDY DURATION: 28 WK), Route [Inhibitor]: GAVAGE, Species: RAT, Strain/Sex: F344/MALE, Target Tissue: Type of Lesion: KIDNEY: NEPHROBLASTOMA, Dose [Carcinogen]: 100 MG/KG BW DEN ONCE, 20 MG/KG BW MNU ONCE ON D 2, 5, 8 AND 11, 40 MG/KG BW DMH ON D 14, 17, 20 AND 23, 0.05% BHBN I, Dose [Carcinogen]: 100 MG/KG BW DEN ONCE, 20 MG/KG BW MNU ONCE ON D 2, 5, 8 AND 11, 40 MG/KG BW DMH ON D 14, 17, 20 AND 23, 0.05% BHBN I, Promoter: NONE USED): 5/20 (25%), 8/19 (42%), -68%, not calculated | tumour outcome (control, treated, inhibition, significance) (Carcinogen: DIETHYLNITROSAMINE, 55-18-5, N-METHYL-NITROSOUREA, 684-93-5, N,N'-DIMETHYLHYDRAZINE, 540-73-8, N-BUTYL-N-(4-HYDROX, Carcinogen: DIETHYLNITROSAMINE, 55-18-5, N-METHYL-NITROSOUREA, 684-93-5, N,N'-DIMETHYLHYDRAZINE, 540-73-8, N-BUTYL-N-(4-HYDROX, 200 MG/KG BW IN CORN OIL 3/WK FOR 6 WK BEGINNING POST CARCINOGEN TREATMENT (STUDY DURATION: 28 WK), Route [Inhibitor]: GAVAGE, Species: RAT, Strain/Sex: F344/MALE, Target Tissue: Type of Lesion: KIDNEY: RENAL CELL CARCINOMA, Dose [Carcinogen]: 100 MG/KG BW DEN ONCE, 20 MG/KG BW MNU ONCE ON D 2, 5, 8 AND 11, 40 MG/KG BW DMH ON D 14, 17, 20 AND 23, 0.05% BHBN I, Dose [Carcinogen]: 100 MG/KG BW DEN ONCE, 20 MG/KG BW MNU ONCE ON D 2, 5, 8 AND 11, 40 MG/KG BW DMH ON D 14, 17, 20 AND 23, 0.05% BHBN I, Promoter: NONE USED): 1/20 (5%), 0/19 (0%), 100%, not calculated | tumour outcome (control, treated, inhibition, significance) (Carcinogen: N-NITROSOMETHYLBENZYLAMINE, 937-40-6, 10 MG/KG IN CORN OIL 1/WK FOR 5 WK BEGINNING 3 HR PRIOR TO CARCINOGEN TREATMENT (STUDY DURATION: 15 WK), Route [Inhibitor]: GAVAGE, Species: RAT, Strain/Sex: SPRAGUE-DAWLEY/MALE, Target Tissue: Type of Lesion: ESOPHAGUS: TUMOR, Dose [Carcinogen]: 3 MG/KG 1/WK FOR 5 WK, Promoter: NONE USED): 96%, 90%, 6%, not significant | tumour outcome (control, treated, inhibition, significance) (Carcinogen: N-NITROSOMETHYLBENZYLAMINE, 937-40-6, 100 MG/KG IN CORN OIL 1/WK FOR 5 WK BEGINNING 3 HR PRIOR TO CARCINOGEN TREATMENT (STUDY DURATION: 15 WK), Route [Inhibitor]: GAVAGE, Species: RAT, Strain/Sex: SPRAGUE-DAWLEY/MALE, Target Tissue: Type of Lesion: ESOPHAGUS: TUMOR, Dose [Carcinogen]: 3 MG/KG 1/WK FOR 5 WK, Promoter: NONE USED): 96%, 63%, 34%, p<0.05 | tumour outcome (control, treated, inhibition, significance) (Carcinogen: N-NITROSOMETHYLBENZYLAMINE, 937-40-6, 200 MG/KG IN CORN OIL 1/WK FOR 5 WK BEGINNING POST CARCINOGEN TREATMENT (STUDY DURATION: 15 WK), Route [Inhibitor]: GAVAGE, Species: RAT, Strain/Sex: SPRAGUE-DAWLEY/MALE, Target Tissue: Type of Lesion: ESOPHAGUS: TUMOR, Dose [Carcinogen]: 3 MG/KG 1/WK FOR 5 WK, Promoter: NONE USED): 96%, 96%, 0%, not significant | outcome (Carcinogen: N-NITROSOMETHYLBENZYLAMINE, 937-40-6, Dose [Inhibitor]: 200 MG/KG BW IN CORN OIL 1/WK FOR 5 WK BEGINNING 3 HR PRIOR TO EACH CARCINOGEN DOSE (STUDY DURATION: 15 WK), Route [Inhibitor]: GAVAGE, Species: RAT, Strain/Sex: SPRAGUE-DAWLEY/MALE, Target Tissue: Type of Lesion: ESOPHAGUS: TUMOR, Dose [Carcinogen]: 3.5 MG/KG BW 1/WK FOR 5 WK, Promoter: NONE USED): 79%, 0, 100%, p<0.001 | tumour outcome (control, treated, inhibition, significance) (Carcinogen: VINYL CARBAMATE, 15805-73-9, 8 UMOL IN 0.1 MOLAR STERILIZED POTASSIUM BUFFER ONCE 10 MIN PRIOR TO CARCINOGEN DOSE (STUDY DURATION: 22 WK), Route [Inhibitor]: GAVAGE, Species: MOUSE, Strain/Sex: ICR/FEMALE, Target Tissue: Type of Lesion: SKIN: PAPILLOMA, Dose [Carcinogen]: 5.8 UMOL IN 0.2 ML ACETONE ONCE, Promoter: 12-O-TETRADECANOYLPHORBOL 13-ACETATE, 16561-29-8): 70%, 57%, 19%, not significant | tumour outcome (control, treated, inhibition, significance) (Carcinogen: VINYL CARBAMATE, 15805-73-9, 200 MG/KG BW ONCE AT 2 HR AND 1 D PRIOR TO CARCINOGEN DOSE (STUDY DURATION: 22 WK), Route [Inhibitor]: GAVAGE, Species: MOUSE, Strain/Sex: CD-1/FEMALE, Target Tissue: Type of Lesion: SKIN: PAPILLOMA, Dose [Carcinogen]: 11.5 UMOL IN 0.2 ML ACETONE ONCE, Promoter: 12-O-TETRADECANOYLPHORBOL-13-ACETATE, 16561-29-8): 58%, 29%, 50%, not calculated
